From patent publication US20090018134A1, “Compounds - 945” (AstraZeneca AB, priority 2007, published 2009)
Where two headings read alike, the source gives them in different places.

Target: T1, mTOR (Homo sapiens, UniProt P42345)
T1 construct: FLAG; made in house
Test: In Vitro mTOR Kinase Assay (Echo), Test (a)(ii)
Assay type: biochemical
How it was run: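 Compounds were acoustically dispensed, then incubated with FLAG-tagged mTOR (1362-2549) for 2 hours at room temperature. Reactions were quenched with EDTA plus detection antibody and AlphaScreen beads and left overnight in the dark before reading. Loss of phospho-T389 signal gave IC50 values.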

[1] = read-out: mTOR Kinase Assay (Echo)
[2] = table of enzyme assay Test (a)(ii), read-out: Test (a)(ii) IC50

T1 sequence (P42345 1362-2549): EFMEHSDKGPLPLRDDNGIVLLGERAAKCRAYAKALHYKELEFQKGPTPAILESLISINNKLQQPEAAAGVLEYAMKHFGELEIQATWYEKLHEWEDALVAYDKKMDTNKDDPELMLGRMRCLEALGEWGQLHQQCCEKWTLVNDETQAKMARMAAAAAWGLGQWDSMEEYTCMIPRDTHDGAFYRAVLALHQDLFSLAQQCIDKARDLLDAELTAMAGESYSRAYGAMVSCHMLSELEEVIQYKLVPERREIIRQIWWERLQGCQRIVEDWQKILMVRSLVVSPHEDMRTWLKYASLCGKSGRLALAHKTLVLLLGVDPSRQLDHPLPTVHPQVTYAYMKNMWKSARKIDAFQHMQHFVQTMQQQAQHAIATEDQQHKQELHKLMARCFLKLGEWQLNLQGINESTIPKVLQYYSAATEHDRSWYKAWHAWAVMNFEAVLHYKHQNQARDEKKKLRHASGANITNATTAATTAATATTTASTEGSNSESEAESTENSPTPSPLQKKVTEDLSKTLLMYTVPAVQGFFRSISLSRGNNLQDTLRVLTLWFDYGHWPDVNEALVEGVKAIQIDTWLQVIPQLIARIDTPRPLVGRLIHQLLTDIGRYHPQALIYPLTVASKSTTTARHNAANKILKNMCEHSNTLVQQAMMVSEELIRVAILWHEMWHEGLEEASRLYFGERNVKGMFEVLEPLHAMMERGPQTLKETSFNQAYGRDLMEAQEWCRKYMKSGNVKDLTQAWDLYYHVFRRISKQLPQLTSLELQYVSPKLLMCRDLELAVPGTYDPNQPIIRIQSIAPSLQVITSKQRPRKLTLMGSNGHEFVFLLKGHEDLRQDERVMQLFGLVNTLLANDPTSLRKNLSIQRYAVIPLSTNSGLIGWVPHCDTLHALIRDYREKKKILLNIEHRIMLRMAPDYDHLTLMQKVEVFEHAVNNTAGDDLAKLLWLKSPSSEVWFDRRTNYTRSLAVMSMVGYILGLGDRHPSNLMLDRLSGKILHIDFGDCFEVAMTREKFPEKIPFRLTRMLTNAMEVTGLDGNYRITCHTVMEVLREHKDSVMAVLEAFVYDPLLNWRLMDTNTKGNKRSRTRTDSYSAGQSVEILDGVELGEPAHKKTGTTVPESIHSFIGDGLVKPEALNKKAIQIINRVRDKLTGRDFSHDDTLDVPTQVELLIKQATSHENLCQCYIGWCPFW

IC50 [1] | IC50 [2] | SMILES
0.96 nM | – | CCNC(=O)Nc1ccc(-c2nc(N3CCOC[C@@H]3C)cc(C3(S(=O)(=O)c4ccc(F)cc4)CC3)n2)cc1 [Example 8a, 1-ethyl-3-[4-[4-[1-(4-fluorophenyl)sulfonylcyclopropyl]-6-[(3S)-3-methylmorpholin-4-yl]pyrimidin-2-yl]phenyl]urea]
1.23 nM | – | C[C@H]1COCCN1c1cc(C2(S(=O)(=O)c3ccc(F)cc3)CC2)nc(-c2ccc(NC(=O)NC3CC3)cc2)n1 [Example 8b, 3-cyclopropyl-1-[4-[4-[1-(4-fluorophenyl)sulfonylcyclopropyl]-6-[(3S)-3-methylmorpholin-4-yl]pyrimidin-2-yl]phenyl]urea]
1.85 nM | – | CC(C)NC(=O)Nc1ccc(-c2nc(N3CCOC[C@@H]3C)cc(C3(S(=O)(=O)c4ccc(F)cc4)CC3)n2)cc1 [Example 8c, 1-[4-[4-[1-(4-fluorophenyl)sulfonylcyclopropyl]-6-[(3S)-3-methylmorpholin-4-yl]pyrimidin-2-yl]phenyl]-3-propan-2-yl-urea]
1.34 nM | – | C[C@H]1COCCN1c1cc(C2(S(=O)(=O)c3ccc(F)cc3)CC2)nc(-c2ccc(NC(=O)NC3CCC3)cc2)n1 [Example 8d, 3-cyclobutyl-1-[4-[4-[1-(4-fluorophenyl)sulfonylcyclopropyl]-6-[(3S)-3-methylmorpholin-4-yl]pyrimidin-2-yl]phenyl]urea]
8.82 nM | – | C[C@H]1COCCN1c1cc(C2(S(=O)(=O)c3ccc(F)cc3)CC2)nc(-c2ccc(NC(=O)NC(C)(C)CO)cc2)n1 [Example 8f, 1-[4-[4-[1-(4-fluorophenyl)sulfonylcyclopropyl]-6-[(3S)-3-methylmorpholin-4-yl]pyrimidin-2-yl]phenyl]-3-(1-hydroxy-2-methyl-propan-2-yl)urea]
61.3 nM | 78.4 nM | C[C@H]1COCCN1c1cc(C2(S(=O)(=O)c3ccc(F)cc3)CC2)nc(-c2ccc(NC(=O)NCCN(C)C)cc2)n1 [Example 8g, 3-(2-dimethylaminoethyl)-1-[4-[4-[1-(4-fluorophenyl)sulfonylcyclopropyl]-6-[(3S)-3-methylmorpholin-4-yl]pyrimidin-2-yl]phenyl]urea]
1.76 nM | – | CCCNC(=O)Nc1ccc(-c2nc(N3CCOC[C@@H]3C)cc(C3(S(=O)(=O)c4ccc(F)cc4)CC3)n2)cc1 [Example 8h, 3-[4-[4-[1-(4-fluorophenyl)sulfonylcyclopropyl]-6-[(3S)-3-methylmorpholin-4-yl]pyrimidin-2-yl]phenyl]-1-propyl-urea]
19.8 nM | – | CC(C)CNC(=O)Nc1ccc(-c2nc(N3CCOC[C@@H]3C)cc(C3(S(=O)(=O)c4ccc(F)cc4)CC3)n2)cc1 [Example 8i, 1-[4-[4-[1-(4-fluorophenyl)sulfonylcyclopropyl]-6-[(3S)-3-methylmorpholin-4-yl]pyrimidin-2-yl]phenyl]-3-(2-methylpropyl)urea]
0.751 nM | – | C[C@H]1COCCN1c1cc(C2(S(=O)(=O)c3ccc(F)cc3)CC2)nc(-c2ccc(NC(=O)NCCCO)cc2)n1 [Example 8j, 1-[4-[4-[1-(4-fluorophenyl)sulfonylcyclopropyl]-6-[(3S)-3-methylmorpholin-4-yl]pyrimidin-2-yl]phenyl]-3-(3-hydroxypropyl)urea]
17.3 nM | – | C[C@H]1COCCN1c1cc(C2(S(=O)(=O)c3ccc(F)cc3)CC2)nc(-c2ccc(NC(=O)Nc3ccc(C(F)(F)F)cc3)cc2)n1 [Example 8k, 1-[4-[4-[1-(4-fluorophenyl)sulfonylcyclopropyl]-6-[(3S)-3-methylmorpholin-4-yl]pyrimidin-2-yl]phenyl]-3-[4-(trifluoromethyl)phenyl]urea]
– | 8.13 nM | C[C@H]1COCCN1c1cc(C2(S(=O)(=O)c3ccc(F)cc3)CC2)nc(-c2ccc(NC(=O)Nc3ccccn3)cc2)n1 [Example 8l, 1-[4-[4-[1-(4-fluorophenyl)sulfonylcyclopropyl]-6-[(3S)-3-methylmorpholin-4-yl]pyrimidin-2-yl]phenyl]-3-pyridin-2-yl-urea]
1.36 nM | – | C[C@H]1COCCN1c1cc(C2(S(=O)(=O)c3ccc(F)cc3)CC2)nc(-c2ccc(NC(=O)Nc3cnn(C)c3)cc2)n1 [Example 8m, 1-[4-[4-[1-(4-fluorophenyl)sulfonylcyclopropyl]-6-[(3S)-3-methylmorpholin-4-yl]pyrimidin-2-yl]phenyl]-3-(1-methylpyrazol-4-yl)urea]

Continued, compound first:

SMILES | IC50 [1] | IC50 [2]
C[C@H]1COCCN1c1cc(C2(S(=O)(=O)c3ccncc3)CC2)nc(-c2ccc(NC(=O)NC3CC3)cc2)n1 [Example 6m, 3-cyclopropyl-1-[4-[4-[(3S)-3-methylmorpholin-4-yl]-6-(1-pyridin-4-ylsulfonylcyclopropyl)pyrimidin-2-yl]phenyl]urea] | 0.936 nM | –
CNC(=O)Nc1ccc(-c2nc(N3CCOC[C@@H]3C)cc(C3(S(=O)(=O)C(C)C)CC3)n2)cc1 [Example 7, 3-Methyl-1-[4-[4-[(3S)-3-methylmorpholin-4-yl]-6-(1-propan-2-ylsulfonylcyclopropyl)pyrimidin-2-yl]phenyl]urea] | 3.15 nM | –
CCNC(=O)Nc1ccc(-c2nc(N3CCOC[C@@H]3C)cc(C3(S(=O)(=O)C(C)C)CC3)n2)cc1 [Example 7a, 1-ethyl-3-[4-[4-[(3S)-3-methylmorpholin-4-yl]-6-(1-propan-2-ylsulfonylcyclopropyl)pyrimidin-2-yl]phenyl]urea] | 2.31 nM | –
CC(C)NC(=O)Nc1ccc(-c2nc(N3CCOC[C@@H]3C)cc(C3(S(=O)(=O)C(C)C)CC3)n2)cc1 [Example 7b, 1-[4-[4-[(3S)-3-methylmorpholin-4-yl]-6-(1-propan-2-ylsulfonylcyclopropyl)pyrimidin-2-yl]phenyl]-3-propan-2-yl-urea] | 18.1 nM | –
CC(C)S(=O)(=O)C1(c2cc(N3CCOC[C@@H]3C)nc(-c3ccc(NC(=O)NC4CCC4)cc3)n2)CC1 [Example 7c, 3-cyclobutyl-1-[4-[4-[(3S)-3-methylmorpholin-4-yl]-6-(1-propan-2-ylsulfonylcyclopropyl)pyrimidin-2-yl]phenyl]urea] | 6.46 nM | –
CC(C)S(=O)(=O)C1(c2cc(N3CCOC[C@@H]3C)nc(-c3ccc(NC(=O)NC4CC4)cc3)n2)CC1 [Example 7d, 3-cyclopropyl-1-[4-[4-[(3S)-3-methylmorpholin-4-yl]-6-(1-propan-2-ylsulfonylcyclopropyl)pyrimidin-2-yl]phenyl]urea] | 3.8 nM | –
CC(C)S(=O)(=O)C1(c2cc(N3CCOC[C@@H]3C)nc(-c3ccc(NC(=O)NCCO)cc3)n2)CC1 [Example 7e, 3-(2-hydroxyethyl)-1-[4-[4-[(3S)-3-methylmorpholin-4-yl]-6-(1-propan-2-ylsulfonylcyclopropyl)pyrimidin-2-yl]phenyl]urea] | 2.12 nM | –
CC(C)S(=O)(=O)C1(c2cc(N3CCOC[C@@H]3C)nc(-c3ccc(NC(=O)NC(C)(C)CO)cc3)n2)CC1 [Example 7f, 3-(1-hydroxy-2-methyl-propan-2-yl)-1-[4-[4-[(3S)-3-methylmorpholin-4-yl]-6-(1-propan-2-ylsulfonylcyclopropyl)pyrimidin-2-yl]phenyl]urea] | 9.15 nM | –
CC(C)S(=O)(=O)C1(c2cc(N3CCOC[C@@H]3C)nc(-c3ccc(NC(=O)NCCN(C)C)cc3)n2)CC1 [Example 7g, 3-(2-dimethylaminoethyl)-1-[4-[4-[(3S)-3-methylmorpholin-4-yl]-6-(1-propan-2-ylsulfonylcyclopropyl)pyrimidin-2-yl]phenyl]urea] | 211 nM | –
CCCNC(=O)Nc1ccc(-c2nc(N3CCOC[C@@H]3C)cc(C3(S(=O)(=O)C(C)C)CC3)n2)cc1 [Example 7h, 3-[4-[4-[(3S)-3-methylmorpholin-4-yl]-6-(1-propan-2-ylsulfonylcyclopropyl)pyrimidin-2-yl]phenyl]-1-propyl-urea] | 11.6 nM | –
CC(C)CNC(=O)Nc1ccc(-c2nc(N3CCOC[C@@H]3C)cc(C3(S(=O)(=O)C(C)C)CC3)n2)cc1 [Example 7i, 1-[4-[4-[(3S)-3-methylmorpholin-4-yl]-6-(1-propan-2-ylsulfonylcyclopropyl)pyrimidin-2-yl]phenyl]-3-(2-methylpropyl)urea] | 18.2 nM | –
CC(C)S(=O)(=O)C1(c2cc(N3CCOC[C@@H]3C)nc(-c3ccc(NC(=O)NCCCO)cc3)n2)CC1 [Example 7j, 3-(3-hydroxypropyl)-1-[4-[4-[(3S)-3-methylmorpholin-4-yl]-6-(1-propan-2-ylsulfonylcyclopropyl)pyrimidin-2-yl]phenyl]urea] | 10.5 nM | –
CC(C)S(=O)(=O)C1(c2cc(N3CCOC[C@@H]3C)nc(-c3ccc(NC(=O)Nc4ccc(C(F)(F)F)cc4)cc3)n2)CC1 [Example 7k, 1-[4-[4-[(3S)-3-methylmorpholin-4-yl]-6-(1-propan-2-ylsulfonylcyclopropyl)pyrimidin-2-yl]phenyl]-3-[4-(trifluoromethyl)phenyl]urea] | 4.82 nM | –
CC(C)S(=O)(=O)C1(c2cc(N3CCOC[C@@H]3C)nc(-c3ccc(NC(=O)Nc4ccccn4)cc3)n2)CC1 [Example 7l, 1-[4-[4-[(3S)-3-methylmorpholin-4-yl]-6-(1-propan-2-ylsulfonylcyclopropyl)pyrimidin-2-yl]phenyl]-3-pyridin-2-yl-urea] | 9.13 nM | –
CC(C)S(=O)(=O)C1(c2cc(N3CCOC[C@@H]3C)nc(-c3ccc(NC(=O)Nc4cnn(C)c4)cc3)n2)CC1 [Example 7m, 1-[4-[4-[(3S)-3-methylmorpholin-4-yl]-6-(1-propan-2-ylsulfonylcyclopropyl)pyrimidin-2-yl]phenyl]-3-(1-methylpyrazol-4-yl)urea] | 5.04 nM | –
CNC(=O)Nc1ccc(-c2nc(N3CCOC[C@@H]3C)cc(C3(S(=O)(=O)c4ccc(F)cc4)CC3)n2)cc1 [Example 8, 1-[4-[4-[1-(4-Fluorophenyl)sulfonylcyclopropyl]-6-[(3S)-3-methylmorpholin-4-yl]pyrimidin-2-yl]phenyl]-3-methyl-urea] | 0.576 nM | 0.959 nM
C[C@H]1COCCN1c1cc(C2(S(=O)(=O)C3CCCC3)CC2)nc(-c2ccc(NC(=O)NC3CC3)cc2)n1 [Example 9, 1-[4-[4-(1-Cyclopentylsulfonylcyclopropyl)-6-[(3S)-3-methylmorpholin-4-yl]pyrimidin-2-yl]phenyl]-3-cyclopropyl-urea] | 1.8 nM | –
